Data from article PMC11438102, “Modulation of cannabinoid receptor 2 alters neuroinflammation and reduces formation of alpha-synuclein aggregates in a rat model of nigral synucleinopathy” (Journal of Neuroinflammation, 2024).
“Also recorded” adds a separate entry of the source.

What was measured:
[1] = Blood brain barrier penetration / pharmacokinetics of SMM-189 in mice; format: in vivo; conditions: 6 mg/kg
Protocol: Analysis of the brain-to-blood ratios of SMM-189 were performed by Sai Life Sciences Limited (Telangana, India). All procedures of the study were in accordance with the guidelines provided by the Committee for the Purpose of Control and Supervision of Experiments on Animals (CPCSEA) as published in The Gazette of India, December 15, 1998. Prior approval of the Institutional Animal Ethics Committee (IAEC) was obtained before initiation of the study. In brief, 54 mice were weighed and divided as Group 1 (6 mg/kg, i.p.) and Group 2 (6 mg/kg, by oral (p.o.)). Animals in Group 1 and Group 2 were administered intraperitoneally and orally with SMM-189 solution formulation at 6 mg/kg in 5% Ethanol, 5% Cremophor and 90% Normal Saline, respectively. The blood samples were collected under light isoflurane anesthesia at 0.08, 0.25, 0.5, 1, 2, 4, 8, 12 and 24 h (i.p.) and 0.25, 0.5, 1, 2, 4, 6, 8, 12 and 24 h (p.o.) in labeled micro centrifuge tube containing K2EDTA as anticoagulant. After blood collection, plasma was harvested by centrifugation and stored at -70 °C until analysis. Immediately after collection of blood, brain samples were collected from set of three mice at each time point at 0.08, 0.25, 0.5, 1, 2, 4, 8, 12 and 24 h (Group 1; i.p.) and 0.25, 0.5, 1, 2, 4, 6, 8, 12 and 24 h (Group 2; p.o.). Brain samples were homogenized using ice-cold phosphate buffer saline (pH-7.4) in a ratio of 2 (buffer):1(brain); and homogenates were stored below − 70 ± 10 °C until analysis. Total homogenate volume was three times the brain weight. All samples were processed for analysis by protein precipitation using acetonitrile and analyzed with fit-for-purpose LC-MS/MS method (LLOQ = 1.02 ng/mL for plasma and 6.09 ng/g for brain).
Non-compartmental-analysis module in Phoenix WinNonlin® (Version 6.3) was used to assess the pharmacokinetic parameters. Maximum concentration (Cmax) and time to reach the maximum concentration (Tmax) were the observed values. The areas under the concentration time curve (AUClast and AUCinf) were calculated by linear trapezoidal rule. The terminal elimination rate constant, ke was determined by regression analysis of the linear terminal portion of the log plasma concentration-time curve. The terminal half-life (T1/2) was estimated as 0.693/ke.

RAW264.7 macrophages = assay: Phagocytosis assay with pHrodo green E. coli bioparticles; format: cell-based; conditions: vs vehicle; for integrated density of GFP (phagocytosis of E. coli bioparticles): 100ng/mL LPS; for phagocytosis of E. coli bioparticles: 1 μg/mL LPS
Protocol: The RAW264.7 macrophage cells (ATCC Cat# TIB-71, RRID: CVCL_0493) were grown in sterile media which consisted of DMEM high glucose, 10% FBS, 2mM L-glutamine, 1x Pen-strep and 1x sodium pyruvate in a humidified 5% CO2 incubator at 37°C. RAW264.7 were maintained in […] tissue culture flasks and plated at a density of 1 × 10^4 cells in triplicate in 96-well plates for assays. Cells were stimulated with either lipopolysaccharide (LPS O111:B4; Sigma Cat#L2630) at 100ng/mL or 1000ng/mL (750EU/mL or 7500 EU/mL, respectively). One hour prior to this stimulation the cells were pre-treated with the CB2 inverse agonist SMM-189 at 3μM or 7 μm or its vehicle. Specifically for cell culture experiments, SMM-189 was formulated with 40% ethanol (v/v), 20% tween-20 (v/v) and 40% saline (v/v). A phagocytosis assay was conducted 24 h after LPS.
The phagocytosis assay was performed using pHrodo green E. coli bioparticles (Invitrogen Cat# P35366) according to the manufacturer’s instructions. Five images per well were then collected every 30 min for 24 h on an EVOS M7000 microscope (Invitrogen, ThermoFisher Scientific). The cells were maintained for this duration using an on-stage incubator kept at 37°C and 5% CO2. Analysis of the collected images was performed using EVOS Celleste software (version 5.0), which counted the cells and then measured the integrated optical density of fluorescence within each well over the 24-hour time course. Analysis was conducted on the average integrated optical density across triplicate wells. Results were consistent across duplicate experimental replicates.

CB2 = tested on: CB2; design: method as in PMID 27766068; conditions: microglia; cited from earlier work
[2] = tested on: human Asyn (pSer129, proteinase K-resistant, total) in substantia nigra; assay: Immunohistochemistry of Asyn species in substantia nigra, optical density; format: in vivo; conditions: rat low cohort, 6 mg/kg i.p. daily 7 weeks
Protocol: Rats were administered unilateral injections of AAV2/5-human wild-type (WT) Asyn at titers of 2.9–4.3 × 10^11 vector genomes (vg)/mL (termed “low cohort”), which was previously shown to not induce nigral neurotoxicity [27]. Thereby, generating a model with overexpression of human WT Asyn and Asyn-mediated neuroinflammation. One week after surgery, animals were randomly selected to receive daily systemic injections of either SMM-189 (intraperitoneal (i.p.), 6 mg/kg, n = 12) or vehicle (i.p., n = 12) and followed for 8 weeks (Figs. 1; n = 2 rats per group were removed due to poor nigral targeting). […] After blood collection, animals were transcardially perfused with ice-cold PBS and the frontal cortex frozen for gene analysis, the striatum frozen for western blotting analysis, and the midbrain post-fixated in 4% PFA to be processed for immunohistochemistry. A second low cohort of rats (SMM-189 n = 6 or vehicle n = 3 with n = 2 removed due to poor nigral targeting) completed the study and provided extra tissue to perform additional immunohistochemical and western blotting analyses.
Brains were post-fixed in 4%PFA for 48 h and transferred to 30% sucrose and cut at 40 μm on a freezing microtome. In brief, endogenous peroxidase was quenched with 3% hydrogen peroxide, blocked with 8% normal serum, avidin (Vector Cat#SP-2001) and 0.1% Triton-X and incubated overnight at 4°C with biotin (Vectorlabs Cat#SP-2001), normal serum and primary antibodies specific for Asyn (Clone 4B12; BioLegend Cat# 807801, RRID: AB_2564730), pSer129 Asyn (Clone EP1536Y; Abcam Cat# ab51253, RRID: AB_869973), CD68 (Bio-Rad Cat# MCA341R, RRID: AB_2291300), MHCII (Bio-Rad Cat# MCA46GA, RRID: AB_567369), and CD163 (Bio-Rad Cat# MCA342A, RRID: AB_2074557). Tissue was incubated in appropriate biotinylated secondary antibodies (1:200), amplified with Vectastain ABC kit (Vectorlabs Cat#PK-6100) and developed with diaminobenzidine tablets or diaminobenzidine drop kit with nickel (Vector Cat#SK-4100) for CD68 immunostaining. […]

[3] = tested on: deep cervical lymph nodes (DCLN) and splenocytes; assay: Flow cytometry of deep cervical lymph nodes and splenocytes (high cohort); format: in vivo, rat; conditions: 8-week endpoint
[4] = tested on: tyrosine hydroxylase, phosphorylated tyrosine hydroxylase, dopamine transporter, IBA1, GFAP in striatum; assay: Western immunoblot of dopaminergic and glial markers in striatal lysates; format: in vivo; conditions: rat low cohort, 6 mg/kg i.p. daily 7 weeks, vs vehicle
Protocol: Striatal tissue from successfully targeted low cohort rats was homogenized in ice-cold TriZOL lysed using the TissueLyser system. Homogenates were incubated with 20% chloroform and centrifuged at 13,523g for 15 min at 4°C. Protein pellets were washed in methanol twice and resuspended in 1% SDS and heated to 50°C. Total protein concentrations were measured using Pierce BCA Protein Assay Kit and equal amount of protein (10–20 µg) mixed with Laemmli sample buffer were loaded in 4–20% TGX precast gels (Biorad) for gel electrophoresis. Protein was transferred to a PVDF membrane (Biorad) using a Trans Blot Turbo Transfer System, the immunoblots were immediately fixed with 0.4% paraformaldehyde (PFA) for 30 min and stained for total protein using Revert 700 (Licor) for reliable normalization. Revert staining was captured and measured on the Licor Odyssey at 700 nm for 30 s.
Non-specific protein binding was blocked with 5% milk and 0.1% Tween-20 in TBS for 1 h at room temperature, and membranes incubated with primary antibodies overnight at 4°C. The blots were washed with 0.1%TBS-Tween-20, incubated with appropriate horseradish peroxidase-conjugated secondary antibodies (1:2000) at room temperature for 1 h and developed with SuperSignal West Femto Enhancer or Pico Peroxide solutions under a chemiluminescent detection imaging system (Licor Odyssey). The density of the band was quantified using StudioLite software. Relative expression levels were normalized to its own total protein and to vehicle average expression level.

O=C(c1ccccc1)c1cc(O)c(-c2cc(Cl)cc(Cl)c2)c(O)c1 [SMM-189]
Cmax ([1]; brain, i.p.): 204.64 ng/mL
Tmax ([1]; brain, i.p.): 30 min
Cmax ([1]; brain, p.o.): 70.34 ng/mL
Tmax ([1]; brain, p.o.): 15 min
Brain/plasma ratio (Cmax) ([1]; i.p.): 0.74
Brain/plasma ratio (Cmax) ([1]; p.o.): 1.63
Cmax ([1]; plasma, i.p.): 277.07 ng/mL
Tmax ([1]; plasma, i.p.): 30 min
Cmax ([1]; plasma, p.o.): 43.15 ng/mL
Tmax ([1]; plasma, p.o.): 15 min
integrated density of GFP (phagocytosis of E. coli bioparticles) (RAW264.7 macrophages; pre-treatment 3 μm, p = 0.0024): significantly increased
integrated density of GFP (phagocytosis of E. coli bioparticles) (RAW264.7 macrophages; pre-treatment 7 μm, p < 0.0001): significantly increased
phagocytosis of E. coli bioparticles (RAW264.7 macrophages; 3 μm): intensified
phagocytosis of E. coli bioparticles (RAW264.7 macrophages; 7 μm): intensified
levels of nuclear phosphorylated cAMP response-element binding protein (pCREB) (CB2): increased
total human Asyn in substantia nigra, optical density ([2]; clone 4B12, vs vehicle): not different
pS129-ir optical density in substantia nigra, normalized to vehicle ([2]; lesioned nigra): reduced
proteinase-K resistant Asyn in substantia nigra, optical density ([2]; vs vehicle): decreased
DCLN myeloid populations including classical CD43-His48+ or CD11b+ monocytes [3]: No frequency difference
Tregs (foxp3+CD4+) in DCLN [3]: significant reduction
CD4 to CD8 lymphocyte ratio in DCLN ([3]; p = 0.0503): trend was found in the CD4 to CD8 lymphocyte ratio to be decreased
CD11b+ myeloid splenocytes ([3]; p = 0.0541): trend to increase
CD4 to CD8 lymphocyte ratio in spleen ([3]; p = 0.0962): no effect; also recorded: trend was found in the CD4 to CD8 lymphocyte ratio to be decreased
myeloid marker IBA1 in striatum, western [4]: no differences
phosphorylated tyrosine hydroxylase in striatal lysates [4]: no significant changes
tyrosine hydroxylase in striatal lysates [4]: no significant changes
astrocyte marker GFAP expression levels in striatum, western ([4]; p = 0.0746): trend to decrease
dopamine transporter in striatal lysates ([4]; trend to increase p = 0.051): no significant changes
